Reference: patent US20260028334A1, “N-(3-(BENZO[B]THIOPHENE-2-CARBOXAMIDO)-PHENYL)-2,3-DIHYDROBENZO[B][1,4]DIOXINE-6-CARBOXAMIDE DERIVATIVES AND RELATED COMPOUNDS AS LACTATE/ATP PRODUCTION INHIBITORS FOR THE TREATMENT OF CANCER” (WMT Aktiengesellschaft, priority 2022, published 2026)

Experiments:
Format in all cases: cell-based
[1] = test system: Panc02 and SKOV3 cells; experiment: Assay for inhibition of ATP production (FIGS. 8A and 8B); details: 48 hours treatment, 1.5 to 10000 nM
Procedure: The assay determines the amount of ATP in cells in culture.
Cells were plated at 4,000 per well in 96-well plate in a medium of high glucose DMEM (PAN) supplemented with 10% FBS (PAN), 2 mM glutamine-alanine (PAN), 2 mM pyruvate (Sigma) and 10 mL/L penicillin-streptomycin and grown at 37° C. in 0.5% O2, 5% CO2 and 75% humidity. For hypoxia, cells were grown and treated in the Whitley H35 Hypoxystation (Don Whitley Scientific) at 37° C. in 0.5% O2, 5% CO2 and 75% humidity. The next day, cells were induced with test compounds (FIG. 1: compounds of examples 3/16, 3/8, 10 at 10000, 3333, 1111, 370, 123, 41, 14, 5 and 1.5 nM; FIGS. 8A and 8B: compounds of example 3/19, 30 and 30/2 at 10000, 3333, 1111, 370, 123, 41, 14, 5 and 1.5 nM), as well as with vehicle (DMSO) only, for 48 hours. After this time, the medium was removed from the cells and intracellular ATP levels were determined using the Promega CellTiter-Glo 2.0 assay protocol (Promega, G9241). To estimate the effect of compounds on the ATP production, sample values were compared to the values of DMSO only. IC50 values were generated by plotting the luciferase counts against compound concentration.

[2] = test system: HeLa, 4T1, LLC1, A549, MDA-MB-231 and MiaPaCa2 cells; experiment: Lactate production inhibition assay (FIG. 2); details: 48 hours treatment, 1.5 to 10000 nM
From the text: Recombinant Lactate Dehydrogenase A (LDHA) was used to convert lactate in tissue culture supernatants to pyruvate, with the concomitant reduction of NAD^+ to NADH. The electron acceptor 1-methoxyphenazine methosulfate (MPMS) was then reduced by the generated NADH, thereby regenerating NAD+. Reduced 1-methoxyphenazine methosulfate is used in turn to reduce Water Soluble Tetrazolium 8 (WST8) to an orange WST8 formazan product. The assay is adapted from the publication “Application of WST-8 based colorimetric NAD(P)H detection for quantitative dehydrogenase assays” described in Chamchoy et al., BMC Biochemistry (2019) 20(1):4.
Cells were plated at 4,000 per well in 96-well plate in a medium of high glucose DMEM (PAN) supplemented with 10% FBS (PAN), 2 mM glutamine-alanine (PAN), 2 mM pyruvate (Sigma) and 10 mL/L penicillin-streptomycin (PAN) and grown at 37° C. in 0.5% O2, 5% CO2 and 75% humidity. For hypoxia, cells were grown and treated in the Whitley H35 Hypoxystation (Don Whitley Scientific) at 37° C. in 0.5% O2, 5% CO2 and 75% humidity. […] Thereafter, 80 μl of substrate mix is added to 20 μl of diluted cell supernatant in a 96-well flat-bottomed plate and the absorbance at 460 nm determined at one minute intervals over a 30 minute period. […]

[3] = test system: ER stress markers CHAC and CHOP/DDIT3; experiment: Gene expression analysis by qPCR (FIG. 8E-8AB); details: Panc02 and SKOV3 cells, 10 nM, 0.5, 1, 2 and 4 hours
Procedure: (§1) Cells were plated at 40,000 cells per ml in medium of high glucose DMEM (PAN) supplemented with 10% FBS (PAN), 2 mM glutamine-alanine (PAN), 2 mM pyruvate (Sigma) and 10 mL/L penicillin-streptomycin (PAN), and grown at 37° C. in 0.5% O2, 5% CO2 and 75% humidity. Next day, cells were induced with test compounds (FIG. 3: compounds of example 3/16, 3/8, 10 at 10 nM; FIG. 8E-8AB: compounds of example 3/16, 3/8, 10, 3/19, 30 and 30/2 at 10 nM) 0.5, 1, 2 and 4 hours, as well as with vehicle (DMSO) only. After this time, the cells were lysed according to protocol (Promega, SV 96 Total RNA Isolation System, #Z3505). After transferring the lysate to a 96-well-RNA binding plate, RNA was isolated and put at approx. 1 μg into cDNA synthesis using LunaScript RT SuperMix Kit (NEB, #E3010). The resulting cDNA was diluted 1:5 and used for qPCR Analysis (Taqman). Luna Universal Probe qPCR Master Mix (NEB, #M3004) is used as 2× reaction mix to which the diluted cDNA is added. The qPCR analysis was performed using QuantStudio™ 6 Flex real-time PCR systems (Thermo Fisher Scientific).
(§2) A set of primers plus probe for each gene of interest was purchased at IDT (Integrated DNA Technologies).

[4] = test system: ER stress markers CHAC, CHOP/DDIT3, XBP1 and SLC7A11; experiment: Gene expression analysis by qPCR (FIG. 3); details: HeLa, 4T1, LLC1, A549, MDA-MB-231 and MiaPaCa2 cells, 10 nM, 0.5, 1, 2 and 4 hours
Procedure: as §1, §2

Structure (SMILES) | ATP production level [1] | lactate production level [2] | ER stress markers CHAC and CHOP/DDIT3 [3] | ER stress markers CHAC, CHOP/DDIT3, XBP1 and SLC7A11 [4]
O=C(Nc1ccc(F)c(NC(=O)c2cc3ccc(OCCCN4CCCC4)cc3s2)c1)c1ccc2c(c1)OCCO2 [3/8] | dose-dependent reduction | dose-dependent reduction | time-dependent upregulation | time-dependent upregulation
Cc1ccc(NC(=O)c2ccc3c(c2)OCCO3)cc1NC(=O)c1cc2cccnc2s1 [3/16] | dose-dependent reduction | dose-dependent reduction | time-dependent upregulation | time-dependent upregulation
